This is an account of results in patent publication US20040072737A1, “Echinocandin derivatives, their method of preparation and their application as anti-fungal agents” (Aventis Pharma S.A., priority 1997, published 2004).

The test system of the experiment is Glucane Synthesis of Candida Albicans (membranes of Candida albicans). Briefly: Inhibition of the glucane synthesis of Candida albicans (14C-UDP glucose incorporation by purified membranes). The settings on record: Candida albicans membrane proteins, 25° C., 1 hour, result in words. Format: biochemical. As for the experimental part: A—Inhibition of the Glucane Synthesis of Candida Albicans.
The membranes of Candida albicans are purified according to the process described by Tang and al Antimicrob. Agents Chemother 35, 99-103, 1991. 22.5 μg of membrane proteins are incubated in a mixture of 2 Mm of 14C-UDP glucose (specific activity=0.34 mCi./mmol, 50 μg of α-amylase, 1 Mm of dithiotreitol (DTT), 1 Mm EDTA, 100 Mm NaF, 7 μM of GTP-γ-S, 1M of sucrose and 5 oMm OF Ttris-HCL (pH 7.8) in a volume of 100 μl. The medium is incubated at 25° C. for 1 hour and the reaction terminated by addition of TCA to a final concentration of 5%. The reaction medium is transferred onto a pre-humidified glass fibre filter. The filter is washed, dried and its radioactivity is counted.
Mulundocandin is used as positive control.
The control of the medium is carried out with the same quantity of DMSO 1%.
Take “(±) Trifluoroacetate of 1-[4-[(aminoiminomethyl) hydrazono]-N2-(12-methyl-1-oxotetradecyl)-L-ornithine]4-[4-(4-hydroxyphenyl)-L-threonine]-5-L serine echinocandin B [Example 11]”: the “Inhibition of the glucane synthesis of Candida albicans” value is on record as “good activity”.
The same measure for “Trifluoroacetate of 1-[4-[(2-aminoethyl) amino]-N2-(12-methyl-1-oxotetradecyl)-L-ornithine]4-[4-(4-hydroxyphenyl)-L-threonine]-5-L serine echinocandin B (isomer A and isomer B) [Example 9]”: “good activity”; for “Trifluoroacetate of 1-[4-[(2-aminoethyl) amino]N2-[[4′-(octyloxy)[1.1′-biphenyl]-4-[carbonyl]-L-ornithine]4-[4-(4-(4-hydroxyphenyl)-L-threonine]-5-L serine echinocandin B (isomer A) [Example 14]”: “good activity”.
